Data set [1] has as its system cLPS-induced systemic inflammation. The experiment in a line: cLPS-induced systemic inflammation. Format: in vivo, mouse. To be noted: WT mice; for Effect on cLPS-induced systemic inflammation: OA or inosine alone, 1-day oral treatment. The method, then:
Plasma sUA levels in WT and CD38 KO mice were increased to the minimum physiological levels of humans by 1-day sUA supplementation (OA plus inosine). Two hours after the last treatment of OA, or OA plus inosine, the mice were intraperitoneally injected with sterile PBS or cLPS (2 or 20 mg/kg), the injection volume was 3 mL/kg. Four hours (20 mg/kg) or 6 hr (2 mg/kg) after stimulation, the mice were sacrificed and whole blood, plasma, and serum were collected.
(§1) Human IL-1β, mouse IL-1β, IL-6, IL-18, TNF-α, and CXCL1 levels were measured according to the protocols provided by the manufacturer. Serum samples were diluted before ELISA when applicable. In this study, all the samples were frozen after collection and thawed before ELISA.

Data set [2] relates to MSU crystal-induced peritonitis. The experiment in a line: MSU crystal-induced peritonitis. To be noted: WT mice, MSU crystals 2 mg/mouse; for Effect on MSU crystal-induced peritonitis: OA or inosine alone, 1-day oral treatment. Format: in vivo. As to the method: Plasma sUA levels in WT and CD38 KO mice were increased to the minimum physiological levels of humans by 1-day sUA supplementation (OA plus inosine). Two hours after the last treatment of OA, or OA plus inosine, the mice were intraperitoneally injected with sterile PBS or MSU crystals (2 mg/mouse), and the injection volume was 200 μL/mouse. Six hours after stimulation, the mice were sacrificed and blood samples were collected. For each mouse, the peritoneal cavity was washed with 5 mL ice-cold sterile PBS, the supernatant was collected by centrifugation for subsequent ELISA, and cell pellets were used for total viable cell count by Trypan Blue staining. In brief, cell pellet from 1.5 mL of peritoneal lavage fluid was resuspended in RBC lysis buffer for 30 s, sterile PBS (ninefold volume) was added to terminate lysis. Afterward, the cells were centrifuged at 1000 rpm for 5 min and resuspended in sterile PBS for viable cell count. For neutrophil count, peritoneal lavage fluid was directly used for smears after appropriate dilution, and subsequently, Wright-Giemsa staining was performed according to the protocol provided by the manufacturer.
as §1

A short description of data set [3]: Moderate sUA supplementation in mice (plasma, whole blood, tissue and serum levels). It is filed as in vivo, mouse. The settings on record: for Interference with whole blood NAD+ metabolism: OA or inosine alone, 1-day treatment, inflammatory conditions. The method, then: Plasma sUA levels in mice were increased to the minimum physiological levels of humans by moderate sUA supplementation. For 1-day sUA supplementation, WT and CD38 KO mice received oral administration of saline, OA (1.5 g/kg), or OA (1.5 g/kg) plus inosine (1.5 g/kg), the gavage volume was 5 mL/kg. Drug suspension in saline was freshly prepared and warmed to 37°C before each treatment. The mice received the first treatment on the evening (19:00) of the first day and the second treatment on the morning (9:00) of the second day. For 3- or 7-day sUA supplementation, WT and CD38 KO mice received the same treatment twice daily from the evening of the first day to the morning of the last day. Four hours after the last treatment, the mice were sacrificed and whole blood, serum, plasma, and tissues were collected for metabolic studies. For immunological studies, mice were stimulated with different ligands 2 hr after the second treatment on the morning (9:00) of the second day.
WT mice received oral administration of saline, OA, or OA plus inosine (1-day supplementation model, as described above). One day (28 hr) or 3 days (76 hr) after the second treatment, the mice were sacrificed and whole blood and plasma were collected.
The collected whole blood samples were immediately diluted 10-fold in 5% ice-cold PCA and homogenized on ice. After 10 min centrifugation at 15,000 rpm, 4°C, the supernatant was subpackaged for measurement or –80°C storage. For NAD^+ measurement in whole blood, the supernatant was handled without freezing and thawing and was measured within 24 hr of sample collection. For measurement of plasma sUA, after sample collection, we immediately diluted the plasma with 5% ice-cold PCA, after vortex, samples were centrifuged at 15,000 rpm, 4°C for 10 min, the collected supernatant was used for the subsequent handling and measurement within 24 hr.
After the collection of blood samples, the mice were immediately perfused with ice-cold sterile PBS. The tissue samples were collected, dried with tissue paper, and weighed. All the tissue samples were immediately homogenized in 5% ice-cold PCA on ice, then centrifuged at 15,000 rpm, 4°C for 10 min. The supernatant was collected and stored at –80°C until further handling for measurement (see LC-MS/MS analysis).
As mentioned above, samples (cells, tissues, blood, or reaction buffer) were treated with ice-cold PCA, after extraction and centrifugation, the collected supernatant was appropriately diluted in 5% ice-cold PCA when applicable, and then was vortexed for 30 s and centrifuged at 15,000 rpm, 4°C for 5 min. Afterward, 30 μL supernatant was added into 200 μL 5 mM ammonium formate containing internal standards at indicated concentrations. Then, all the samples were vortexed for 30 s and centrifuged at 15,000 rpm, 4°C for 5 min again, the final supernatant was used for subsequent measurement. All the samples after handling were immediately analyzed in this study without freezing and thawing.
The LC-MS/MS system consisted of a triple quadrupole LCMS-8050 (Shimadzu) and an LC-30A system (Shimadzu). NAD^+, NMN, and the N-cyclohexyl benzamide (NCB, internal standard, 5 ng/mL) were eluted on Altlantis HILIC Silica (2.1×150 mm, 5 μm) at 40°C using an isocratic mobile phase containing 60% water with 0.1% formic acid and 40% acetonitrile with 0.1% formic acid at 0.4 mL/min. The selected transitions of m/z were 664.10 → 136.10 for NAD^+, 334.95 → 123.15 for NMN, and 204.10 → 122.20 for NCB in positive ion mode. NAD^+ and NMN were measured independently in this study, as their peaks were hardly separated within a short time.
sUA, cADPR, and FYU-981 (internal standard, 1 μM, Fuji Yakuhin Co., Ltd.) were eluted on CAPCELL PAK C8 TYPE UG 120 (2×150 mm, 5 μm) at 40°C. sUA and FYU-981 were separated using a gradient mobile phase containing water with 0.1% formic acid (A) and acetonitrile with 0.1% formic acid (B) at 0.4 mL/min. […]

The mark [4] stands for this setting: 6 hr, 1-day sUA supplementation, not in CD38 KO mice.

Consider `O=C(O)c1nc(=O)[nH]c(=O)[nH]1` [OA, oxonic acid, reference compound], for which the “Effect on cLPS-induced systemic inflammation” value in data set [1] (cLPS 2 mg/kg) is on record as “hardly affected”. Besides, the “Effect on MSU crystal-induced peritonitis” value in data set [2] is “hardly affected”. The “Interference with whole blood NAD+ metabolism” value in data set [3] (WT mice) is “had no interference”. Besides, in data set [3] (mice, short-term administration of OA alone), the “Effect on plasma sUA levels” value is reported as “failed to increase plasma sUA levels”.
Take `O=c1[nH]c(=O)c2[nH]c(=O)[nH]c2[nH]1` [sUA, uric acid]: the “cLPS-induced production of serum IL-1β and IL-18” value in data set [1] (cLPS 2 mg/kg, 6 hr, 1-day sUA supplementation (OA plus inosine), abrogated in CD38 KO mice) was “suppressed”. Besides, in data set [1] (cLPS 2 mg/kg, 6 hr, 1-day sUA supplementation), the “Serum TNF-α levels” value was “without affecting”. The “High-dose cLPS-induced systemic inflammation” value in data set [1] (cLPS 20 mg/kg, 4 hr) is reported as “hardly limited”. In data set [2] (setting [4]), the “Production of IL-1β and IL-6, peritoneal lavage fluid” value was “reduced the production of IL-1β and IL-6”; the “Recruitment of viable cells and neutrophils, peritoneal lavage fluid” value was “inhibited the recruitment of viable cells and neutrophils”. Further, in data set [3] (1- or 3-day moderate sUA supplementation (OA plus inosine), WT mice, not in CD38 KO mice), the “Whole blood NAD+ levels” value was “slightly but significantly increased”. The “cADPR production in whole blood” value in data set [3] (1-day sUA supplementation, inflammatory conditions (cLPS 2 mg/kg), not under non-inflammatory conditions) is reported as “decrease in cADPR production”. For the same compound, in data set [3] (7-day sUA-supplementation model), the “NAD+ levels in the brain and heart” value is “appeared to be elevated”. Also, the “Plasma sUA and whole blood NAD+ after sUA release” value in data set [3] (WT mice, 1-day or 3-day release after 1-day supplementation) was “gradually returned to their initial levels”. Besides, the concentration at 4 h in data set [3] (mouse, plasma, mice, oral OA 1.5 g/kg plus inosine 1.5 g/kg, read-out: Plasma sUA levels in the sUA-supplementation models) is about 120 µM. In addition, the “NMN levels in vivo” value in data set [3] (sUA supplementation, whole blood) is listed as “minor effect on NMN levels”. For the same compound, the “Serum IL-1β production” value in data set [3] (sUA-supplementation models within 7 days) is on record as “did not show an increase”.
Regarding `O=c1[nH]cnc2c1ncn2[C@@H]1O[C@H](CO)[C@@H](O)[C@H]1O` [Inosine, inosine, reference compound], the “Effect on cLPS-induced systemic inflammation” value in data set [1] (cLPS 2 mg/kg) is “hardly affected”. Moreover, in data set [2], the “Effect on MSU crystal-induced peritonitis” value is on record as “hardly affected”. In addition, the “Interference with whole blood NAD+ metabolism” value in data set [3] (WT mice) is given as “had no interference”.

The values above are taken from PMC11554305, “Functional identification of soluble uric acid as an endogenous inhibitor of CD38” (eLife, 2024).
